Test [1] relates to experimental autoimmune encephalomyelitis (EAE) provoked by myelin oligodendrocyte glycoprotein (MOG). As to the kind of experiment: CR EAE provoked by MOG in mice, s.c. treatment. The class given is in vivo. To be noted: for ASC (treatment from day 5 to day 22): HMW Zn-HA 10 mg/kg, ZnCl2 equivalent to 0.8 mg/kg Zn2+; for Effect on the EAE model (in words): mice. The source says:
The only adequate and widely used model available for purposes of preclinical investigations of multiple sclerosis is the experimental autoimmune encephalomyelitis (EAE) (Mokhatarian et al., Nature 309, 356-358. (1984); Raine et al., Lab. Invest. 31, 369-380. (1974)), an inflammatory disease of the central nervous system transmitted by CD4^+ T-lymphocytes. Although the clinical complexity of the model is moderate compared with the disease investigated, its use is unavoidable in a research aimed at MS. Preclinical tests of Copolymer-1 (Copaxone) and interferon beta-1 already approved for human treatment, as well as those of the new drugs under development were/are carried out using this model (Popovic et al., Ann. Neurol. 51, 215-223. (2001); Stanislaus et al., Neurosci. Lett. 333, 167-170. (2002)). […] That's why in our experiments CR EAE provoked by myelin oligodendrocyte glycoprotein (MOG) in mice has been studied (Amor et al., J. Immunol. 153, 4349-4356. (1994)). In the middle of the 1960s the effect of hyaluronan sodium salt was investigated by Romanian research workers on EAE model.
Next, the possible effect of the HMW Zn-HA (10 mg/kg in 200 μl of physiological saline, subcutane) on the time of appearance of clinical symptoms has been investigated.
Tests were carried out on groups of mice (n=6-10 mice/group) using two types of treatment: (i) prophylactic, wherein administration happens from day 5 to day 22 after inoculation of MOG, or in a single case from day 9-10 to day 28 after that (marked with # in tables 2 and 3); and (ii) therapeutic treatment, wherein administration of the Zn-HA happened from day 13 to day 28 after the EAE had been induced (marked with * in tables 2 and 3).
The mice were given 10 mg/kg HMW Zn-HA s. c. daily and clinical data thereof were obtained from day 10 to day 28 and day 5 to day 22, respectively, after the EAE had been induced. The results were calculated from the average daily clinical data to give the average summed up clinical data (ASC).
In the studies summarized in Tables 1 to 4 each mouse used as EAE model received 200 μl s. c. injection each; the injection contained the active ingredient or the carrier (0.9% sodium chloride aqueous solution). To obtain the doses given in terms of mg/kg bodyweight above solutions of different concentration were prepared as follows: […]

The target in test [2] is matrix metalloproteinases, particularly the MMP-9 (Homo sapiens, UniProt P14780). As to conditions: cited from earlier work.
Sequence of matrix metalloproteinases, particularly the MMP-9 (P14780 94-707): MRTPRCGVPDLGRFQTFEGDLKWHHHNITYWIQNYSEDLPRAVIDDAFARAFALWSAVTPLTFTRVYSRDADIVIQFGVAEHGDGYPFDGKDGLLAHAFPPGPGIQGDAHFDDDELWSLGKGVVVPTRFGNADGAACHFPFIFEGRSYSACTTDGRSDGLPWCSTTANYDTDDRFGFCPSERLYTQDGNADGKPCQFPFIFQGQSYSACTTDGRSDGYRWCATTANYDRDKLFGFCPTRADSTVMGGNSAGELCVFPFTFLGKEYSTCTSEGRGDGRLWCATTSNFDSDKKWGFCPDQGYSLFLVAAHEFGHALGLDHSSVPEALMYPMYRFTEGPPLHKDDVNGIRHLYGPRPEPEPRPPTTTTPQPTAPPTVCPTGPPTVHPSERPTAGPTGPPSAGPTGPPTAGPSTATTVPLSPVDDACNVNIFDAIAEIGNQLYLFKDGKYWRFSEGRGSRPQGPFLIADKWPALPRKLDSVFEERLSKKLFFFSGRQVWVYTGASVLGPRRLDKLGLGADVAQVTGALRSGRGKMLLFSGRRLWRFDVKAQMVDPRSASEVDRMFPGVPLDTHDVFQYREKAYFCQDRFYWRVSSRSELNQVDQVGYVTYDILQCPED
A further test deals with EAE. As to conditions: rabbits, intramuscularly; cited from earlier work.
For test [3] the following is noted: compared with the sodium-HA salt; cited from earlier work.

We go through three compounds from patent US20070123488A1, “Pharmaceutical composition comprising a zinc-hyaluronate complex for the treatment of multiple sclerosis” (RICHTER GEDEON VEGYESZETI GYAR RT., priority 2003, published 2007).

“Also recorded” adds a separate entry of the source.

As to `[Cl-].[Cl-].[Zn+2]` [ZnCl2, zinc chloride], in test [1], the “ASC (treatment from day 5 to day 22)” value was 14.2 ± 3.3 and the “Effect on the EAE model (in words)” value is on record as “did not show significant effect”. For the same compound, the “Effect on the EAE model (in words)” value in test [1] (listed as Zn^2+) is on record as “ineffective”.

Regarding Na-hyaluronan [HMW Na-HA], in test [1], the “ASC (treatment from day 5 to day 22)” value was 14.2 ± 1.9. Further, the “Effect on the EAE model (in words)” value is reported as “ineffective” in test [1] (listed as Na-HA), “ineffective; also recorded: did not show significant effect” in test [1] (listed as Na-HA salt) and “didn't exert any influence” in test [1] (listed as Na-hyaluronan). In addition, the “Inhibitory effect on tissue damaging enzymes (matrix metalloproteinases, particularly the MMP-9)” value in test [2] is “does not show the latter effect”. Moreover, the “Effect on development of EAE (in words)” value in the test with EAE is “did not inhibit, but in certain cases did assist the development of EAE”.

As to zinc-hyaluronan complex [zinc-HA], the “Inhibitory effect on tissue damaging enzymes (matrix metalloproteinases, particularly the MMP-9)” value in test [2] is “inhibitory effect”. Besides, in test [3], the Antioxidant activity result is reported as “increased antioxidant activity”.
